The values below come from patent US5684140A, “Dyes for ink jet printing” (Ilford A.G., priority 1995, dated 1997).

The nature of the data set: Water solubility of the dyes (excess dye heated at 50 °C in water, cooled to 20 °C, filtered, determined spectroscopically). It counts as physicochemical. As to conditions: after heating at 50 °C for one hour. How it is done:
The solubilities of the dyes according to the invention were determined as follows:
An excess of dye was heated at 50° C. in water with stirring for one hour. The mixture was then cooled down to 20 ° C. and filtered, and the dye content of the clear solution was determined spectroscopically.

In turn, `COc1cc(N=Nc2cc(S(=O)(=O)O)c3cccc(S(=O)(=O)O)c3c2)c(C)cc1Nc1nc(NCCS(=O)(=O)O)nc(SCC(=O)O)n1` [Compound 102] displayed a solubility of 54 g per 100 ml. Under `CCN(c1nc(Cl)nc(Nc2ccc(N=Nc3cc4c(S(=O)(=O)O)cc(S(=O)(=O)O)cc4cc3S(=O)(=O)O)c(NC(N)=O)c2)n1)c1cc(S(=O)(=O)O)ccc1C` [dye 1, reference compound] stands 11 g per 100 ml; under `COc1cc(N=Nc2cc(S(=O)(=O)O)c3cccc(S(=O)(=O)O)c3c2)c(C)cc1Nc1nc(O)nc(NCCS(=O)(=O)O)n1` [Compound 100], 31 g per 100 ml; under `CCN(c1nc(Cl)nc(Nc2cc(NC(C)=O)c(N=Nc3cc(S(=O)(=O)O)c4cccc(S(=O)(=O)O)c4c3)cc2OC)n1)c1cc(S(=O)(=O)O)ccc1C` [dye 5, reference compound], 17 g per 100 ml.

Turning to `COc1cc(N=Nc2cc(S(=O)(=O)O)c3cccc(S(=O)(=O)O)c3c2)c(C)cc1Nc1nc(NCCS(=O)(=O)O)nc(SCCO)n1` [Compound 101], the solubility is on record as 40 g per 100 ml.
